These results are taken from ChEMBL document CHEMBL4359843, “Linear and Rationally Designed Stapled Peptides Abrogate TLR4 Pathway and Relieve Inflammatory Symptoms in Rheumatoid Arthritis Rat Model” (J Med Chem, 2019).

In series [1] the test system is Rattus norvegicus. Nature of the series: Antiarthritic activity in Lewis rat model of complete Freund's adjuvant-induced arthritis assessed as reduction in ankle diameter at 1 nmol/g administered intra-articularly into knee joint for 6 weeks and measured every week during compound dosing by vernier caliper analysis. Format: functional, organism-based.
Series [2] concerns Rattus norvegicus. Description: Antiarthritic activity in Lewis rat model of complete Freund's adjuvant-induced arthritis assessed as appearance of osteocytes at 1 nmol/g administered intra-articularly into knee joint after 1 week by H and E staining based histopathological analysis. Type of series: functional, organism-based.
In series [3] the target is TLR7 and TLR8 (Homo sapiens) (UniProt Q9NYK1+Q9NR97). Description: Antagonist activity at TLR7/8 in human THP1 cells assessed as reduction in R848-induced IL6 secretion at 50 uM after 24 hrs by ELISA. Type of series: cell-based.
Series [4] deals with Rattus norvegicus. Nature of the series: Antiarthritic activity in Lewis rat model of complete Freund's adjuvant-induced arthritis assessed as increase in cartilage thickness at 1 nmol/g administered intra-articularly into knee joint after 1 week by H and E staining based histopathological analysis. Type of series: functional, organism-based.
For series [5], the system named is Rattus norvegicus. Description: Antiarthritic activity in Lewis rat model of complete Freund's adjuvant-induced arthritis assessed as reduction in ankle swelling and edema at 1 nmol/g administered intra-articularly into knee joint after 2 weeks by visual analysis. Format: functional, organism-based.
The target of series [6] is T1, Toll-like receptor 1/2 (Homo sapiens) (UniProt O60603+Q15399). Nature of the series: Antagonist activity at TLR2/1 in human THP1 cells assessed as reduction in PAM3CSK4-induced IL6 secretion at 50 uM after 24 hrs by ELISA. Type of series: cell-based.
For series [7], the system named is Rattus norvegicus. Nature of the series: Antiarthritic activity in Lewis rat model of complete Freund's adjuvant-induced arthritis assessed as regain of normal feet physiology at 1 nmol/g administered intra-articularly into knee joint after 5 to 6 weeks by visual analysis. Type of series: functional, organism-based.
Series [8] concerns the target T2, Toll-like receptor 4 (Homo sapiens, UniProt O00206). Nature of the series: Antagonist activity at TLR4 in human THP1 cells assessed as reduction in LPS-induced ATF3 activation at 50 uM after 120 to 240 mins by Western blot analysis. Type of series: cell-based.
In series [9] the test system is Rattus norvegicus. Description: Antiarthritic activity in Lewis rat model of complete Freund's adjuvant-induced arthritis assessed as appearance of rounded mature chondrocytes surrounded by GAG deposition at 1 nmol/g administered intra-articularly into knee joint and measured on third week by Safranin-O staining based histopathological analysis. Format: functional, organism-based.

The target in series [10] is T2, Toll-like receptor 4. Description: Antagonist activity at TLR4 in human THP1 cells assessed as reduction in LPS-induced IkappaBalpha degradation at 50 uM after 15 to 30 mins by Western blot analysis. Type of series: cell-based.
Series [11] concerns Rattus norvegicus. Description: Antiarthritic activity in Lewis rat model of complete Freund's adjuvant-induced arthritis assessed as reduction in mean articular index score at 1 nmol/g administered intra-articularly into knee joint for 6 weeks and measured every week during compound dosing. Format: functional, organism-based.
For series [12], the target named is T3, Toll-like receptor 4 (Mus musculus) (UniProt Q9QUK6).
T3 sequence (whole entry): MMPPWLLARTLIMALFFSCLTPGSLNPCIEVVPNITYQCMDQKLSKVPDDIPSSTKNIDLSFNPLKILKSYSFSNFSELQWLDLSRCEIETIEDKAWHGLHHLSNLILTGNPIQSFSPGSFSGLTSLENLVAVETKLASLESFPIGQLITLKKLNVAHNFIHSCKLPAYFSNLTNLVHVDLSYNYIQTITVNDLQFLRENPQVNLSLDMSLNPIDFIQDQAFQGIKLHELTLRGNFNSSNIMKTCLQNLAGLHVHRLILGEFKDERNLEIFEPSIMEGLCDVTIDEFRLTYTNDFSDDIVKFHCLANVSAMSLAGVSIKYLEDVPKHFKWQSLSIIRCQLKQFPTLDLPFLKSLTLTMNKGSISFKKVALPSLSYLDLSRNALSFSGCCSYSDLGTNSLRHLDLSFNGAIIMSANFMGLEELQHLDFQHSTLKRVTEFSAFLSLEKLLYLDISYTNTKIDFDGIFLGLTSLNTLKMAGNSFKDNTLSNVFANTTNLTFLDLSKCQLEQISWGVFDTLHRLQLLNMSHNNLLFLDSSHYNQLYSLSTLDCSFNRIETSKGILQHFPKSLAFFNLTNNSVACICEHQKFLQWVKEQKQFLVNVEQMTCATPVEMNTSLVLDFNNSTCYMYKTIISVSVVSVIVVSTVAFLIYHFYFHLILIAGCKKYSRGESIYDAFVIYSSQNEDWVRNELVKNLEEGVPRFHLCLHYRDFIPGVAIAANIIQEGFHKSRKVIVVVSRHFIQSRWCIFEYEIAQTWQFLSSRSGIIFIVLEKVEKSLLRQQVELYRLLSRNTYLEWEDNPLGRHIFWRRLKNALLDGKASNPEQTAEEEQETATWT
Description: Antagonist activity at TLR4 in mouse RAW264.7 cells assessed as reduction in LPS-induced IFNbeta secretion at 5 to 50 uM after 24 hrs by ELISA. Type of series: cell-based.

In series [13] the target is T3, Toll-like receptor 4 (Mus musculus). Nature of the series: Antagonist activity at TLR4 in mouse RAW264.7 cells assessed as reduction in LPS-induced COX2 expression at 80 uM by Western blot analysis. Format: cell-based.
In series [14] the target is T1, Toll-like receptor 1/2 (Homo sapiens). Nature of the series: Antagonist activity at TLR2/1 in human PBMC cells assessed as reduction in PAM3CSK4-induced IL6 secretion at 20 to 80 uM after 24 hrs by ELISA. Type of series: cell-based.
For series [15], the target named is T2, Toll-like receptor 4. Nature of the series: Antagonist activity at TLR4 in human PBMC cells assessed as reduction in LPS-induced TNFalpha secretion at 20 to 80 uM after 24 hrs by ELISA. Format: cell-based.
Series [16] addresses T3, Toll-like receptor 4 (Mus musculus). Nature of the series: Antagonist activity at TLR4 in mouse RAW264.7 cells assessed as reduction in LPS-induced iNOS expression at 80 uM by Western blot analysis. Format: cell-based.
For series [17], the target named is Toll-like receptor 1/2 (Mus musculus) (UniProt Q9QUN7+Q9EPQ1). Description: Antagonist activity at TLR2/1 in mouse RAW264.7 cells assessed as reduction in PAM3CSK4-induced TNFalpha secretion at 20 to 80 uM after 24 hrs by ELISA. Format: cell-based.
Series [18] deals with T2, Toll-like receptor 4. Nature of the series: Antagonist activity at TLR4 in human PBMC cells assessed as reduction in LPS-induced ERK phosphorylation at 80 uM after 15 to 30 mins by Western blot analysis. Type of series: cell-based.
Series [19] deals with T3, Toll-like receptor 4 (Mus musculus). Description: Antagonist activity at TLR4 in mouse BMDM cells assessed as reduction in LPS-induced IL6 secretion at 20 to 80 uM after 24 hrs by ELISA. Format: cell-based.
The target in series [20] is T2, Toll-like receptor 4. Nature of the series: Antagonist activity at TLR4 in human PBMC cells assessed as reduction in LPS-induced p38 phosphorylation at 80 uM after 15 to 30 mins by Western blot analysis. Type of series: cell-based.
The next series concerns RAW264.7. Description: Cytotoxicity against mouse RAW264.7 cells assessed as reduction in cell viability at 20 to 80 uM after 24 hrs by MTT assay. Format: cell-based. Conditions: raw264.7, 24 h.
Series [21] deals with T3, Toll-like receptor 4 (Mus musculus). Description: Antagonist activity at TLR4 in mouse RAW264.7 cells assessed as reduction in LPS-induced NFkappaB p65 phosphorylation at 80 uM after 15 to 30 mins by Western blot analysis. Format: cell-based.
Series [22] can be described thus: Effect on SEAP activity in HEK-Blue cells harboring human TLR4 at 20 to 80 uM after 1 hr by SEAP assay. Format: ADME, cell-based.

Active and inactive are the calls of the source. No cut-off for these calls is given here. Where a SMILES comes first, the peptide text is derived from it. Bridges are numbered along the chain shown (N, C = ends).

T2 sequence (O00206 whole entry): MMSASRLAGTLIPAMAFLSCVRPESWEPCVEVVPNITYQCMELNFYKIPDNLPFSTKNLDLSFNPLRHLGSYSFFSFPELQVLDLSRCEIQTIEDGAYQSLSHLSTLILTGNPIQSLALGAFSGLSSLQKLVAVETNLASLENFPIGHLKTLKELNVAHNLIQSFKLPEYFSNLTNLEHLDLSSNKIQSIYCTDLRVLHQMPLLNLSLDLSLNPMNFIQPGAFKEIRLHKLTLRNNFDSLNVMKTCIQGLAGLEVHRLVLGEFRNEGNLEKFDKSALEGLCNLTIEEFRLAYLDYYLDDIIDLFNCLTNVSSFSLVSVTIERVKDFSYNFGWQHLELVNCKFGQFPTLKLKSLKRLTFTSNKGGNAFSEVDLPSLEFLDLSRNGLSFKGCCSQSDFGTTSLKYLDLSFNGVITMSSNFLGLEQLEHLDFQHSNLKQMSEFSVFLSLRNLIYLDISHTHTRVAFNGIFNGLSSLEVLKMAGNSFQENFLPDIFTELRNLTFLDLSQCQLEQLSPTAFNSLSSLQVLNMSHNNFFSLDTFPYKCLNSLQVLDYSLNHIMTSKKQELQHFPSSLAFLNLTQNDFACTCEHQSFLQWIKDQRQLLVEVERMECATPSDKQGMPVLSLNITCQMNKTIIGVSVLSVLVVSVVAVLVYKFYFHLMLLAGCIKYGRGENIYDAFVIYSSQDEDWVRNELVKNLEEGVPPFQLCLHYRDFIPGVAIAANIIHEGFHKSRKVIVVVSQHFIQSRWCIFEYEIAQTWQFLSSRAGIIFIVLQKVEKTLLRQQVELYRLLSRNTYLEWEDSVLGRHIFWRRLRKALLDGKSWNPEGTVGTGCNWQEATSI

In the case of `CC[C@H](C)[C@@H]1NC(=O)[C@H](Cc2c[nH]c3ccccc23)NC(=O)[C@H](Cc2c[nH]c3ccccc23)NC(=O)[C@@H](NC(=O)[C@H](CO)NC(=O)[C@H](Cc2ccccc2)NC(=O)[C@@H](NC(=O)CNC(=O)[C@@H](N)CC(C)C)C(C)C)CC(=O)NCCCC[C@@H](C(=O)N[C@@H](CC(C)C)C(=O)N[C@H](C(=O)O)C(C)C)NC1=O` (H-LGVFSDWWIKLV-OH; lactam 6-10), the outcome (with Rattus norvegicus [1]; in the series with Rattus norvegicus [2]; in series [3]; in the series on Rattus norvegicus [4]; with Rattus norvegicus [5]; in [6]) was Active. The result (in the series with Rattus norvegicus [7]; at Toll-like receptor 4 [8]; in the series on Rattus norvegicus [9]; at Toll-like receptor 4 [10]; in the series on Rattus norvegicus [11]; in series [12]) was Active.

As for H-LGVFSSWWIKLV-OH, the result (in series [13]; at Toll-like receptor 4 [15]; in series [16]; on Toll-like receptor 4 [18]; in series [19]; on Toll-like receptor 4 [20]) was Active. In [21], the result was Active. Moreover, the outcome in series [14] and in [17] was inactive. Further, the Activity entry (in the series on RAW264.7; in [22]) was “Non-Toxic” each time.
